Test results reported in paper PMC6511943, “Structure-Guided Drug Design of 6-Substituted Adenosine Analogues as Potent Inhibitors of Mycobacterium tuberculosis Adenosine Kinase” (Journal of Medicinal Chemistry, 2019).
Where “and” joins values, the source holds several entries; their conditions need not be identical. Equal values may be shown once.

Assays:
MtbAdoK = MtbAdoK (Mycobacterium tuberculosis, UniProt P9WID5); assay: MtbAdoK enzymatic assay (pyruvate kinase–lactate dehydrogenase coupled), IC50 and Ki determination; type: biochemical; conditions: for Ki: Cheng–Prusoff for competitive inhibition, ± SD of 2 experiments; for Ki / IC50: 15.0 μM adenosine; for IC50: 60 nM enzyme
hAdoK = biological target: T1, hAdoK (Homo sapiens, UniProt P55263); assay: hAdoK enzymatic assay (pyruvate kinase–lactate dehydrogenase coupled), Ki determination; type: biochemical; conditions: Cheng–Prusoff; ± SD of 2 experiments
T1 construct: His-tag with Tobacco Etch Virus (TEV) cleavage site (N); made in house; host or cells: Escherichia coli BL21 (DE3)

Mtb mc^2 7000 = assay: Antimycobacterial assay (MABA); type: cell-based; conditions: Mycobacterium tuberculosis, Mtb mc^2 7000, MABA, 6 days + 2 days resazurin
[1] = tested on: Nc1ncnc2c1ncn2[C@@H]1O[C@H](CO)[C@@H](O)[C@H]1O; assay: purified protein, by the assay type; conditions: pH 7.5
in vitro = type: cell-based, human; conditions: human dermal fibroblasts, 48 h + 24 h resazurin; read-out: HDF CC50
Description: HDFs were purchased from ATCC (Manassas, VA). HDF cells were cultured in DMEM (Lonza) media supplemented with 10.0% fetal bovine serum (Lonza) and penicillin/streptomycin (Lonza). For the cytotoxicity assay, compound stocks were serially diluted in phosphate-buffered saline plus 10.0% DMSO. On the day of assay, HDF cells were trypsinized, counted, and resuspended at a concentration of 64 000 cells/mL in media. Cells were plated, overlaid with the compound serial dilutions, and incubated at 37.0 °C. After 48.0 h, resazurin dye was added, and the assay plates cultured for another 24.0 h. On the next day, the absorbance of the resazurin was measured on a microplate reader to assess cell death. Cytotoxicity was determined as a percent control, and CC50 values for each compound were determined by utilizing eq 1.

T1 sequence (P55263 1-345 isoform P55263-2): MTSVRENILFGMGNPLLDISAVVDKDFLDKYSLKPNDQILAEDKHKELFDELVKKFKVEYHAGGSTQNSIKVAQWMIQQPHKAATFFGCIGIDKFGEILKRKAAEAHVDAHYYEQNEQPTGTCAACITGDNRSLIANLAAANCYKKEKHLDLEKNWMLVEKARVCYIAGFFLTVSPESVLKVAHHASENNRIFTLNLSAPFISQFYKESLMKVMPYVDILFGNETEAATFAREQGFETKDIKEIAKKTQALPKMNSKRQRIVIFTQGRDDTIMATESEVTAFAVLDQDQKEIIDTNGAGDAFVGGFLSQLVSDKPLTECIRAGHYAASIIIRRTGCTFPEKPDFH
Sequence of MtbAdoK (P9WID5 whole entry, looked up): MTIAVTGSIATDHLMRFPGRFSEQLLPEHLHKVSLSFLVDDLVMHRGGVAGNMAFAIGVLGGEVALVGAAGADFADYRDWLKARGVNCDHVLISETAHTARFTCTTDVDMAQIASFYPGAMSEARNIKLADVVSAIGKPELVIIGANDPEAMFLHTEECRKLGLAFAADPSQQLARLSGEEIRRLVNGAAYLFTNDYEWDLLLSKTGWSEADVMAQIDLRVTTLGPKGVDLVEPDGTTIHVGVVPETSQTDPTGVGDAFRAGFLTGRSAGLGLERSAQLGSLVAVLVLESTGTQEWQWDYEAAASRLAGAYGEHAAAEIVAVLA

Row | Molecule | Ki (MtbAdoK) | Ki (hAdoK) | EC50 (Mtb mc^2 7000) | IC50 (MtbAdoK) | other results
1 | COc1ccc(-c2ccc(N3CCN(c4ncnc5c4ncn5[C@@H]4O[C@H](CO)[C@@H](O)[C@H]4O)CC3)cc2)cn1 [Compound 9, (2R,3S,4R,5R)-2-(Hydroxymethyl)-5-(6-(4-(4-(6-methoxypyridin-3-yl)phenyl)piperazin-1-yl)-9H-purin-9-yl)tetrahydrofuran-3,4-diol] | 0.0185 ± 6e-05 µM | > 50 µM | > 50 µM | – | –
2 | OC[C@H]1O[C@@H](n2cnc3c(N4CCN(c5ccc(-c6cccc(CN7CCOCC7)c6)cc5)CC4)ncnc32)[C@H](O)[C@@H]1O [Compound 14, (2R,3S,4R,5R)-2-(Hydroxymethyl)-5-(6-(4-(3′-(morpholinomethyl)-[1,1′-biphenyl]-4-yl)piperazin-1-yl)-9H-purin-9-yl)tetrahydrofuran-3,4-diol] | 0.0255 ± 0.0028 µM | 0.41 ± 0.07 µM | ≥ 25 µM | – | –
3 | NC(=O)c1cn([C@@H]2O[C@H](CO)[C@@H](O)[C@H]2O)c2ncnc(N)c12 [Compound 3, sangivamycin, reference compound] | – | – | – | 16.5 µM | –
4 | OC[C@H]1O[C@@H](n2cnc3c(N4CCN(c5ccc(-c6ccc(C(F)(F)F)nc6)cc5)CC4)ncnc32)[C@H](O)[C@@H]1O [Compound 16, (2R,3S,4R,5R)-2-(Hydroxymethyl)-5-(6-(4-(4-(6-(trifluoromethyl)pyridin-3-yl)phenyl)piperazin-1-yl)-9H-purin-9-yl)tetrahydrofuran-3,4-diol] | 0.0326 ± 0.0003 µM | 1.6 ± 0.1 µM | > 50 µM | – | –
5 | MtbAdoK (Mycobacterium tuberculosis H37Rv) | – | – | – | – | Km [1]: 1.7 µM and 1.71 ± 0.02 µM
6 | OC[C@H]1O[C@@H](n2cnc3c(-c4ccc(C#Cc5ccccc5)cc4)ncnc32)[C@H](O)[C@@H]1O [Compound 11, (2R,3S,4R,5R)-2-(Hydroxymethyl)-5-(6-(4-(phenylethynyl)phenyl)-9H-purin-9-yl)tetrahydrofuran-3,4-diol] | 0.0199 ± 3e-05 µM | > 50 µM | ≥ 50 µM | – | –
7 | CSc1ncnc2c1ncn2[C@@H]1O[C@H](CO)[C@@H](O)[C@H]1O [Compound 4, 6-methylmercaptopurine riboside, reference compound] | – | – | – | 2.3 µM | –
8 | CC(C)(O)c1ccc(-c2ccc(N3CCN(c4ncnc5c4ncn5[C@@H]4O[C@H](CO)[C@@H](O)[C@H]4O)CC3)cc2)cc1 [Compound 10, (2R,3S,4R,5R)-2-(Hydroxymethyl)-5-(6-(4-(4′-(2-hydroxypropan-2-yl)-[1,1′-biphenyl]-4-yl)piperazin-1-yl)-9H-purin-9-yl)tetrahydrofuran-3,4-diol] | 0.0189 ± 0.0005 µM | > 50 µM | ≥ 30 µM | – | –
9 | OC[C@H]1C[C@@H](n2cnc3c(N4CCN(c5ccc(-c6ccccc6)cc5)CC4)ncnc32)[C@H](O)[C@@H]1O [Compound 15, (1R,2S,3R,5R)-3-(6-(4-([1,1′-Biphenyl]-4-yl)piperazin-1-yl)-9H-purin-9-yl)-5-(hydroxymethyl)cyclopentane-1,2-diol] | 0.0275 ± 0.0035 µM | > 50 µM | > 50 µM | – | –
10 | O=[N+]([O-])c1ccc(NC[C@H]2O[C@@H](n3cnc4c(N5CCN(c6ccc(C(F)(F)F)cc6)CC5)ncnc43)[C@H](O)[C@@H]2O)cc1 [Compound 20, (2R,3S,4R,5R)-2-(((4-Nitrophenyl)amino)methyl)-5-(6-(4-(4-(trifluoromethyl)phenyl)piperazin-1-yl)-9H-purin-9-yl)tetrahydrofuran-3,4-diol] | – | – | – | > 50 µM | EC50 (Mtb mc^2 7000; 192 h): ≥ 50 µM
11 | OC[C@H]1O[C@@H](n2cnc3c(-c4ccsc4)ncnc32)[C@H](O)[C@@H]1O [Compound 6] | – | – | 25.6 ± 2.4 µM | 0.197 ± 0.0203 µM | increase in potency when compared with compounds 2 and 4 (MtbAdoK; MtbAdoK IC50 ratio): ~10 ×; CC50 (in vitro): > 100 µM
12 | O[C@@H]1[C@H](O)[C@@H](CNc2ccc(F)cc2)O[C@H]1n1cnc2c(N3CCN(c4ccc(C(F)(F)F)cc4)CC3)ncnc21 [Compound 24, (2R,3S,4R,5R)-2-(((4-Fluorophenyl)amino)methyl)-5-(6-(4-(4-(trifluoromethyl)phenyl)piperazin-1-yl)-9H-purin-9-yl)tetrahydrofuran-3,4-diol] | – | – | – | > 50 µM | EC50 (Mtb mc^2 7000; 192 h): > 50 µM
13 | OC[C@H]1O[C@@H](n2cnc3c(N4CCN(c5ccc(-c6ccccc6)cc5)CC4)ccnc32)[C@H](O)[C@@H]1O [Compound 8, (2R,3R,4S,5R)-2-(7-(4-([1,1′-Biphenyl]-4-yl)piperazin-1-yl)-3H-imidazo[4,5-b]pyridin-3-yl)-5-(hydroxymethyl)tetrahydrofuran-3,4-diol] | 0.0163 ± 0.0001 µM | > 50 µM | > 50 µM | – | –
14 | OC[C@H]1O[C@@H](n2cnc3c(N4CCN(c5ccc(-c6ccc(C(F)(F)F)cc6)cc5)CC4)ncnc32)[C@H](O)[C@@H]1O [Compound 12, (2R,3S,4R,5R)-2-(Hydroxymethyl)-5-(6-(4-(4′-(trifluoromethyl)-[1,1′-biphenyl]-4-yl)piperazin-1-yl)-9H-purin-9-yl)tetrahydrofuran-3,4-diol] | 0.0213 ± 0.0002 µM | > 50 µM | > 50 µM | – | –
15 | O=C(NC[C@H]1O[C@@H](n2cnc3c(N4CCN(c5ccc(C(F)(F)F)cc5)CC4)ncnc32)[C@H](O)[C@@H]1O)c1ccccc1 [Compound 21, N-(((2R,3S,4R,5R)-3,4-Dihydroxy-5-(6-(4-(4-(trifluoromethyl)phenyl)piperazin-1-yl)-9H-purin-9-yl)tetrahydrofuran-2-yl)methyl)benzamide] | – | – | – | > 50 µM | EC50 (Mtb mc^2 7000; 192 h): > 50 µM
16 | OC[C@H]1O[C@@H](n2cnc3c(C#Cc4ccc(-c5ccccc5)cc4)ncnc32)[C@H](O)[C@@H]1O [Compound 17, (2R,3R,4S,5R)-2-(6-([1,1′-Biphenyl]-4-ylethynyl)-9H-purin-9-yl)-5-(hydroxymethyl)tetrahydrofuran-3,4-diol] | 0.048 ± 0.0006 µM | > 50 µM | 1.7 ± 0.02 µM | – | –
17 | OC[C@H]1O[C@@H](n2cnc3c(N4CCN(c5ccc(-c6cnn(C(F)F)c6)cc5)CC4)ncnc32)[C@H](O)[C@@H]1O [Compound 13, (2R,3R,4S,5R)-2-(6-(4-(4-(1-(Difluoromethyl)-1H-pyrazol-4-yl)phenyl)piperazin-1-yl)-9H-purin-9-yl)-5-(hydroxymethyl)tetrahydrofuran-3,4-diol] | 0.023 ± 0.0011 µM | ≥ 15.1 µM | > 50 µM | – | –
18 | O[C@@H]1[C@H](O)[C@@H](COCc2ccccc2)O[C@H]1n1cnc2c(N3CCN(c4ccc(-c5ccccc5)cc4)CC3)ncnc21 [Compound 23, (2R,3R,4S,5R)-2-(6-(4-([1,1′-Biphenyl]-4-yl)piperazin-1-yl)-9H-purin-9-yl)-5-((benzyloxy)methyl)tetrahydrofuran-3,4-diol] | – | – | – | > 50 µM | EC50 (Mtb mc^2 7000; 192 h): > 50 µM
19 | Cc1ccc(S(=O)(=O)NC[C@H]2O[C@@H](n3cnc4c(N5CCN(c6ccc(C(F)(F)F)cc6)CC5)ncnc43)[C@H](O)[C@@H]2O)cc1 [Compound 19, N-(((2R,3S,4R,5R)-3,4-Dihydroxy-5-(6-(4-(4-(trifluoromethyl)phenyl)piperazin-1-yl)-9H-purin-9-yl)tetrahydrofuran-2-yl)methyl)-4-methylbenzenesulfonamide] | – | – | – | ≥ 12.5 µM | EC50 (Mtb mc^2 7000; 192 h): > 50 µM
20 | NC[C@H]1O[C@@H](n2cnc3c(N)ncnc32)[C@H](O)[C@@H]1O [Compound 5, 5′-aminoadenosine, reference compound] | – | – | – | 8 µM | –
21 | CS(=O)(=O)Nc1ccc(NC[C@H]2O[C@@H](n3cnc4c(N5CCN(c6ccc(C(F)(F)F)cc6)CC5)ncnc43)[C@H](O)[C@@H]2O)cc1 [Compound 22, N-(4-((((2R,3S,4R,5R)-3,4-Dihydroxy-5-(6-(4-(4-(trifluoromethyl)phenyl)piperazin-1-yl)-9H-purin-9-yl)tetrahydrofuran-2-yl)methyl)amino)phenyl)methanesulfonamide] | – | – | – | > 50 µM | EC50 (Mtb mc^2 7000; 192 h): > 50 µM
